For one molecule, IC50 results are on record in PMC10792649 (Current Research in Microbial Sciences, 2023).

This assay has as its target OROV endonuclease (N-terminal endonuclease domain of OROV RNA-polymerase) (Oropouche virus, UniProt A0A0B5CUJ1). Description: fluorescence assay, cleavage of labelled DNA FAM-TCTCTAGCAGTGGCGCC-TAM. The class given is biochemical.

In turn, `COc1cc2[nH]c3c(OC)c(OC)ccc3c(=O)c2c(OC)c1OC` [FAC21, 1,2,3,5,6-Pentamethoxy-9-(10H)-acridinone] showed an IC50 of 1400 ± 300 nM.

In general, IC50 refers to the concentration at which inhibition is half-maximal.
